In paper PMC9305750 (Chemmedchem, 2022):
Several values for one entry are separate records, joined by “and”; a condition that tells them apart may be missing. Equal values may be shown once. Entries after “also recorded” stand apart in the source; their conditions may differ. Read-outs that look alike come from different tables or passages of the source.

Assays:
Nurr1 LBD = Nurr1 LBD (Homo sapiens, UniProt P43354); assay: HTRF assay of Nurr1 LBD homodimerization; format: biochemical
[1] = target: T1, human Nurr1 ligand binding domain (LBD) fused to the Gal4 DNA binding domain (Homo sapiens, UniProt P43354); assay: Hybrid Gal4-Nurr1 reporter gene assay in transiently transfected HEK293T cells; format: cell-based; conditions: for fold act. (maximum Nurr1 activation vs. DMSO (0.1 %)): purified compounds, mean±S.E.M., n≥3
[2] = target: T1, human Nurr1 ligand binding domain (LBD) fused to the Gal4 DNA binding domain; conditions: for comparison; cited from earlier work

T1 sequence (P43354 360-595 limits assumed): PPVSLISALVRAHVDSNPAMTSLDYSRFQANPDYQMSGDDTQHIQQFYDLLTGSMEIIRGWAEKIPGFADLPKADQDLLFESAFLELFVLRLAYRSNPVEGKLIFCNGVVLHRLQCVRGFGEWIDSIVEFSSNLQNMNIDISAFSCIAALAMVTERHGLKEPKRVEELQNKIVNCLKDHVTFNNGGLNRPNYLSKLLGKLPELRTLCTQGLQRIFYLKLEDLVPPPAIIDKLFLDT
Chain of Nurr1 LBD (P43354 360-595 limits assumed): as above

| SMILES | effect on Nurr1 LBD homodimerization (HTRF) (Nurr1 LBD) | EC50 [1] | fold act. (maximum Nurr1 activation vs. DMSO (0.1 %)) [1] | fold act. (maximum Nurr1 activation vs. DMSO (0.1 %)) [2] |
| --- | --- | --- | --- | --- |
| Clc1ccc(-c2ccc(CNc3ccnc4cc(Cl)ccc34)o2)cc1 [3 j, 7‐Chloro‐N‐((5‐(4‐chlorophenyl)furan‐2‐yl)methyl)quinolin‐4‐amine] | diminished dimerization; also recorded: diminished Nurr1 homodimerization | 8 ± 1 µM | 2.5±0.1 fold | – |
| CCN(CC)Cc1cc(Nc2ccnc3cc(Cl)ccc23)ccc1O [AQ, amodiaquine] | – | – | – | 3.6 fold and 3.6±0.1 fold |
| CCN(CC)CCCC(C)Nc1ccnc2cc(Cl)ccc12 (stereo not shown) [CQ, chloroquine] | – | – | – | 2.0±0.1 fold |
| Nc1ccnc2cc(Cl)ccc12 [compound 3, 4‐Amino‐7‐chloroquinoline] | – | – | – | 2.5 fold and 2.5±0.4 fold |
| O=C(Nc1ccnc2cc(Cl)ccc12)c1ccc(-c2ccc(Cl)cc2)o1 [compound 4, 5‐(4‐Chlorophenyl)‐N‐(7‐chloroquinolin‐4‐yl)furan‐2‐carboxamide] | – | 3 ± 0.1 µM | 2.0±0.1 fold | – |
| Clc1ccc(-c2ccc(CN3CCOc4cc(Cl)ccc43)o2)cc1 [compound 5, 7‐Chloro‐4‐((5‐(4‐chlorophenyl)furan‐2‐yl)methyl)‐3,4‐dihydro‐2H‐benzo[b][1,4]oxazine] | – | 47 ± 13 µM | 2.0±0.2 fold | – |
